The experiment concerns the target T1, wild-type FLT3 receptor (Homo sapiens, UniProt P36888).
T1 construct: host or cells: Baf3 (murine B cell lymphoma line), stably transfected
T1 sequence (P36888 27-993): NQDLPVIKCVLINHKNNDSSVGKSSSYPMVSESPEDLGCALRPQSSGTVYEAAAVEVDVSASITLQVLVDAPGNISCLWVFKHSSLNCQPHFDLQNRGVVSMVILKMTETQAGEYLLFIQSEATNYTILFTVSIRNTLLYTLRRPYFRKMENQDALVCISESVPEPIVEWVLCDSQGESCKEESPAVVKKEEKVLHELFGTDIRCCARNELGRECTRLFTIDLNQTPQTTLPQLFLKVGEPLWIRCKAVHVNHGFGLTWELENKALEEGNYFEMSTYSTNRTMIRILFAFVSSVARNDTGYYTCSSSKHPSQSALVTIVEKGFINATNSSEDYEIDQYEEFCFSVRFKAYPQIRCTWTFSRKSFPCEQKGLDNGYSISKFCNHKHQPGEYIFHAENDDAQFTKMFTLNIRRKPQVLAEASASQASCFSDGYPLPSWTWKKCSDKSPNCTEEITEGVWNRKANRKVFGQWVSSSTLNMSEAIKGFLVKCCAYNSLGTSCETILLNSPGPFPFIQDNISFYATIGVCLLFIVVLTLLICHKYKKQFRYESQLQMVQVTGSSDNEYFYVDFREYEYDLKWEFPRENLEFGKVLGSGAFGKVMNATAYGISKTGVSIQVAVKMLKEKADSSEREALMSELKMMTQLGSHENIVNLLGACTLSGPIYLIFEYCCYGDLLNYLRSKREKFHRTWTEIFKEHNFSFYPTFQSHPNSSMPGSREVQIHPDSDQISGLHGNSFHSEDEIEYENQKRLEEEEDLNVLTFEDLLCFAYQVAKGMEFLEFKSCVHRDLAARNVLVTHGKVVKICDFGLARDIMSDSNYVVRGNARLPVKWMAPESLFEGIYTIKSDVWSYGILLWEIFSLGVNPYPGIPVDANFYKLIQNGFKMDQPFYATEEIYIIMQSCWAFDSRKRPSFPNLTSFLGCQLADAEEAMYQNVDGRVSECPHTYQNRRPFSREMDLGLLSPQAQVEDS
As to the kind of experiment: Cell-based FLT3 receptor ELISA (FLT ligand-induced phosphorylation in Baf3 FLT3 cells). The note with it: 100 ng/mL Flt ligand, uncertainty ±20%. The procedure: Specific cellular inhibition of FLT ligand-induced wild-type FLT3 phosphorylation was measured in the following manner: Baf3 FLT3 cells overexpressing the FLT3 receptor were obtained from Dr. Michael Heinrich (Oregon Health and Sciences University). The Baf3 FLT3 cell lines were created by stable transfection of parental Baf3 cells (a murine B cell lymphoma line dependent on the cytokine IL-3 for growth) with wild-type FLT3. Cells were selected for their ability to grow in the absence of IL-3 and in the presence of FLT3 ligand. Baf3 cells were maintained in RPMI 1640 with 10% FBS, penn/strep and 10 ng/ml FLT ligand at 37° C., 5% CO2. To measure direct inhibition of the wild-type FLT3 receptor activity and phosphorylation a sandwich ELISA method was developed similar to those developed for other RTKs (see Sadick, M D, Sliwkowski, M X, Nuijens, A, Bald, L, Chiang, N, Lofgren, J A, Wong W L T. Analysis of Heregulin-Induced ErbB2 Phosphorylation with a High-Throughput Kinase Receptor Activation Enzyme-Linked Immunsorbent Assay, Analytical Biochemistry. 1996; 235:207-214 and Baumann C A, Zeng L, Donatelli R R, Maroney A C. Development of a quantitative, high-throughput cell-based enzyme-linked immunosorbent assay for detection of colony-stimulating factor-1 receptor tyrosine kinase inhibitors. J Biochem Biophys Methods. 2004; 60:69-79.). 200 μL of Baf3FLT3 cells (1×10^6 /mL) were plated in 96 well dishes in RPMI 1640 with 0.5% serum and 0.01 ng/mL IL-3 for 16 hours prior to 1 hour compound or DMSO vehicle incubation. Cells were treated with 100 ng/mL Flt ligand (R&D Systems Cat# 308-FK) for 10 min. at 37° C. Cells were pelleted, washed and lysed in 100 ul lysis buffer (50 mM Hepes, 150 mM NaCl, 10% Glycerol, 1% Triton-X-100, 10 mM NaF, 1 mM EDTA, 1.5 mM MgCl2, 10 mM NaPyrophosphate) supplemented with phosphatase (Sigma Cat# P2850) and protease inhibitors (Sigma Cat #P8340). Lysates were cleared by centrifugation at 1000×g for 5 minutes at 4° C. Cell lysates were transferred to white wall 96 well microtiter (Costar #9018) plates coated with 50 ng/well anti-FLT3 antibody (Santa Cruz Cat# sc-480) and blocked with SeaBlock reagent (Pierce Cat#37527). Lysates were incubated at 4° C. for 2 hours. Plates were washed 3× with 200 ul/well PBS/0.1% Triton-X-100. Plates were then incubated with 1:8000 dilution of HRP-conjugated anti-phosphotyrosine antibody (Clone 4G10, Upstate Biotechnology Cat#16-105) for 1 hour at room temperature. Plates were washed 3× with 200 ul/well PBS/0.1% Triton-X-100. Signal detection with Super Signal Pico reagent (Pierce Cat#37070) was done according to manufacturer's instruction with a Berthold microplate luminometer. All data points are an average of triplicate samples. […] Inhibition and IC50 data analysis was done with GraphPad Prism using a non-linear regression fit with a multiparamater, sigmoidal dose-response (variable slope) equation.
Background: In an ELISA, binding on a coated surface is turned into a signal by an enzyme label.

For the molecule `COc1cc2ncnc(C3CCN(C(=O)Nc4ccc(C(C)C)cc4)CC3)c2cc1OC` [Example 4, 4-(6,7-Dimethoxy-quinazolin-4-yl)-piperidine-1-carboxylic acid (4-isopropyl-phenyl)-amide], the midpoint of inhibition, the IC50, lay at 56 nM.
Under `CC(C)Oc1ccc(NC(=O)N2CCC(c3ccnc4ccccc34)CC2)cc1` [Example 6, 4-Quinolin-4-yl-piperidine-1-carboxylic acid (4-isopropoxy-phenyl)-amide] stands 40 nM; under `CC(C)c1ccc(NC(=O)N2CCC(c3ncnc4ccccc34)CC2)cc1` [Example 7, 4-Quinazolin-4-yl-piperidine-1-carboxylic acid (4-isopropyl-phenyl)-amide], 367 nM.
Under `CC(C)Oc1ccc(NC(=O)N2CCC(c3ncnc4ccccc34)CC2)cc1` [Example 8, 4-Quinazolin-4-yl-piperidine-1-carboxylic acid (4-isopropoxy-phenyl)-amide] stands 851 nM; under `COc1cc2ncnc(C3CCN(CC(=O)Nc4ccc(C(C)C)cc4)CC3)c2cc1OC` [Example 9, 2-[4-(6,7-Dimethoxy-quinazolin-4-yl)-piperidin-1-yl]-N-(4-isopropyl-phenyl)-acetamide], 7 nM; under `COc1cc2ncnc(C3CCN(CC(=O)Nc4ccc(OC(C)C)cc4)CC3)c2cc1OC` [Example 10, 2-[4-(6,7-Dimethoxy-quinazolin-4-yl)-piperidin-1-yl]-N-(4-isopropoxy-phenyl)-acetamide], 31 nM.
As for `CC(C)Oc1ccc(NC(=O)N2CCC(c3ncnc4ccc(I)cc34)CC2)cc1` [Example 11, 4-(6-Iodo-quinazolin-4-yl)-piperidine-1-carboxylic acid (4-isopropoxy-phenyl)-amide], half-maximal inhibition (IC50) was put at 1400 nM.
Under `CC(C)Oc1ccc(NC(=O)N2CCC(c3ncnc4ccc(C#CCO)cc34)CC2)cc1` [Example 12, 4-[6-(3-Hydroxy-prop-1-ynyl)-quinazolin-4-yl]-piperidine-1-carboxylic acid (4-isopropoxy-phenyl)-amide] stands 36 nM.
As for `CCN(CC)CC#Cc1ccc2ncnc(C3CCN(C(=O)Nc4ccc(OC(C)C)cc4)CC3)c2c1` [Example 13, 4-[6-(3-Diethylamino-prop-1-ynyl)-quinazolin-4-yl]-piperidine-1-carboxylic acid (4-isopropoxy-phenyl)-amide], the midpoint of inhibition, the IC50, lay at 27 nM.
The same measure for `CC(C)Oc1ccc(NC(=O)N2CCC(c3ncnc4ccc(C#CCN5CCCCC5)cc34)CC2)cc1` [Example 14, 4-[6-(3-Piperidin-1-yl-prop-1-ynyl)-quinazolin-4-yl]-piperidine-1-carboxylic acid (4-isopropoxy-phenyl)-amide]: 186 nM.
Under `CCCCc1ccc(NC(=O)N2CCC(c3ncnc4cc(OC)c(OC)cc34)CC2)cc1` [Example 43, 4-(6,7-Dimethoxy-quinazolin-4-yl)-piperidine-1-carboxylic acid (4-butyl-phenyl)-amide] stands 59 nM; under `CCOc1ccc(NC(=O)N2CCC(c3ncnc4cc(OC)c(OC)cc34)CC2)cc1` [Example 44, 4-(6,7-Dimethoxy-quinazolin-4-yl)-piperidine-1-carboxylic acid (4-ethoxy-phenyl)-amide], 163 nM; under `COc1cc2ncnc(C3CCN(C(=O)Nc4ccccc4)CC3)c2cc1OC` [Example 45, 4-(6,7-Dimethoxy-quinazolin-4-yl)-piperidine-1-carboxylic acid phenylamide], above 3000 nM.
Regarding `COc1cc2ncnc(C3CCN(C(=O)Nc4ccc(Oc5ccccc5)cc4)CC3)c2cc1OC` [Example 47, 4-(6,7-Dimethoxy-quinazolin-4-yl)-piperidine-1-carboxylic acid (4-phenoxy-phenyl)-amide], the IC50 (usually the concentration that gives 50% inhibition) was 8 nM.
Under `COc1cc2ncnc(C3CCN(C(=O)Nc4ccc(OC(F)F)cc4)CC3)c2cc1OC` [Example 51, 4-(6,7-Dimethoxy-quinazolin-4-yl)-piperidine-1-carboxylic acid (4-difluoromethoxy-phenyl)-amide] stands 542 nM.

These data come from patent US20070004660A1, “Synergistic Modulation of Flt3 Kinase Using Alkylquinolines and Alkylquinazolines” (priority 2005, published 2007).
